Experimental data as given in PMC9379334, “Determination of ceftriaxone in human plasma using liquid chromatography–tandem mass spectrometry” (Wellcome Open Research, 2022).
Where two headings read alike, the source gives them in different places.

Assays:
[1] = Stability of ceftriaxone in spiked human plasma under different storage conditions (LC-MS/MS); type: physicochemical; conditions: for Stability, Precipitated 4hrs in RT: protein precipitated; for Stability in plasma, F/T cycle 5 / Stability in plasma, F/T cycle 3: freeze -80°C/thaw RT; for Stability in plasma, RT 24 hrs / Stability in plasma, RT 48 hrs: RT about 23°C
Method: (§1) Stock solution 10 mg/ml was evaluated at -80°C and at +4°C for 5 days, and in room temperature (+24°C) for 8 hrs. The lowest concentration of working solution 50 µg/ml was also evaluated at -80°C for 5 days and at room temperature (24°C) for 5 hrs. Spiked plasma stored at ambient temperature and at 4°C for 48 h was used to evaluate short-term stability. Long-term stability of spiked samples at -80°C was evaluated after 7 months. Freeze-thaw stability was evaluated for plasma samples and haemolysed plasma samples for five cycles. The samples were stored at -80°C for 24 h followed by unassisted thawing at room temperature for 2–3 h and subsequent re-freezing at -80°C. The stability of precipitated samples stored at ambient temperature (about 23°C) for 4 h was also evaluated. The stability of extracted samples in the LC autosampler kept at 10°C was evaluated by re-injecting the calibrators and QC samples 65 h after initial injection. The acceptance criteria for stability was achieved when the RSD of stability samples was below ±15%, and the accuracy of mean concentrations was within ±15% of nominal concentration.
(§2) The stability samples were quantified using a calibration curve in CPD plasma. Stability samples in CPD plasma were compared to the average measured concentration of CPD QC samples added in the same run. The CPD calibration curve was also used to quantify heparin and EDTA stability samples due to limited supply of volunteer donor blood. However, since EDTA and heparin have different recovery from plasma compared to CPD, a direct comparison would be biased. Thus, stability samples were instead compared with the average measured concentration of the precision and accuracy of each anticoagulant.

[2] = Stability of extracted samples in the LC autosampler at 10°C; type: physicochemical, human
[3] = cited from earlier work
[4] = cited from earlier work; remark: listed apart in the source
[5] = Stability of ceftriaxone stock and working solutions; conditions: for Stock solution stability: stock solution 10 mg/ml in water; for Working solution stability: weakest working solution 50 µg/ml
Method: as §1, §2

[6] = Stability of ceftriaxone in acidic (pH about 2) and neutral pH dilutions; conditions: +4°C
[7] = QC1, 2.97 µg/ml, CPD haemolysis plasma
[8] = QC1, 2.97 µg/ml, CPD plasma, vs average measured CPD QC concentration in same run
[9] = QC1, 2.97 µg/ml, EDTA plasma, vs average of four precision and accuracy batches
[10] = QC1, 2.97 µg/ml, EDTA plasma, vs average of four precision and accuracy batches for this anticoagulant
[11] = QC1, 2.97 µg/ml, Li-heparin plasma, vs average of four precision and accuracy batches
[12] = QC1, 2.97 µg/ml, Na-heparin haemolysis plasma
[13] = QC1, 2.97 µg/ml, Na-heparin plasma, vs average of four precision and accuracy batches
[14] = QC3, 155 µg/ml, CPD haemolysis plasma
[15] = QC3, 155 µg/ml, CPD plasma, vs average measured CPD QC concentration in same run
[16] = QC3, 155 µg/ml, EDTA plasma, vs average of four precision and accuracy batches
[17] = QC3, 155 µg/ml, Li-heparin plasma, vs average of four precision and accuracy batches
[18] = QC3, 155 µg/ml, Na-heparin haemolysis plasma
[19] = QC3, 155 µg/ml, Na-heparin plasma, vs average of four precision and accuracy batches

## CO/N=C(\C(=O)N[C@@H]1C(=O)N2C(C(=O)O)=C(CSc3nc(=O)c(=O)[nH]n3C)CS[C@H]12)c1csc(N)n1 [ceftriaxone]
[1]; [7]
  Stability, Precipitated 4hrs in RT: 99.3%
  Stability in plasma, F/T cycle 5: 88.4%
[1]; [8]
  Stability, Precipitated 4hrs in RT: 94.2%
  Stability in plasma, RT 24 hrs: 106%
  Stability in plasma, RT 48 hrs: 100%
  Stability in plasma, F/T cycle 3: 97.7%
  Stability in plasma, F/T cycle 5: 94.0%
  Stability in plasma, 4°C 24 hrs: 102%
  Stability in plasma, 4°C 48 hrs: 103%
  Stability in plasma, -80°C 224 days: 103%
[1]; [9]
  Stability, Precipitated 4hrs in RT: 98.0%
  Stability in plasma, F/T cycle 3: 103%
  Stability in plasma, F/T cycle 5: 103%
  Stability in plasma, -80°C 224 days: 95.5%
[1]; [10]
  Stability in plasma, RT 24 hrs: 105%
  Stability in plasma, 4°C 24 hrs: 113%
[1]; [11]
  Stability, Precipitated 4hrs in RT: 103%
  Stability in plasma, F/T cycle 3: 95.7%
  Stability in plasma, F/T cycle 5: 99.5%
  Stability in plasma, 4°C 24 hrs: 98.3%
  Stability in plasma, -80°C 224 days: 96.0%
[1]; QC1, 2.97 µg/ml, Li-heparin plasma, vs average of four precision and accuracy batches for this anticoagulant
  Stability in plasma, RT 24 hrs: 105%
[1]; [12]
  Stability, Precipitated 4hrs in RT: 91.9%
  Stability in plasma, F/T cycle 3: 91.3%
  Stability in plasma, F/T cycle 5: 97.6%
[1]; [13]
  Stability, Precipitated 4hrs in RT: 96.8%
  Stability in plasma, F/T cycle 3: 100%
  Stability in plasma, F/T cycle 5: 98.7%
  Stability in plasma, 4°C 24 hrs: 109%
  Stability in plasma, -80°C 224 days: 93.7%
[1]; QC1, 2.97 µg/ml, Na-heparin plasma, vs average of four precision and accuracy batches for this anticoagulant
  Stability in plasma, RT 24 hrs: 103%
[1]; [14]
  Stability, Precipitated 4hrs in RT: 94.3%
  Stability in plasma, F/T cycle 5: 98.6%
[1]; [15]
  Stability, Precipitated 4hrs in RT: 101%
  Stability in plasma, RT 24 hrs: 99.8%
  Stability in plasma, RT 48 hrs: 99.6%
  Stability in plasma, F/T cycle 3: 99.1%
  Stability in plasma, F/T cycle 5: 95.0%
  Stability in plasma, 4°C 24 hrs: 101%
  Stability in plasma, -80°C 224 days: 109%
[1]; [16]
  Stability, Precipitated 4hrs in RT: 90.9%
  Stability in plasma, F/T cycle 3: 97.9%
  Stability in plasma, F/T cycle 5: 95.5%
  Stability in plasma, 4°C 24 hrs: 104%
  Stability in plasma, -80°C 224 days: 92.8%
[1]; [17]
  Stability, Precipitated 4hrs in RT: 91.4%
  Stability in plasma, F/T cycle 3: 96.1%
  Stability in plasma, F/T cycle 5: 94.2%
  Stability in plasma, 4°C 24 hrs: 108%
  Stability in plasma, -80°C 224 days: 98.8%
[1]; QC3, 155 µg/ml, Li-heparin plasma, vs average of four precision and accuracy batches for this anticoagulant
  Stability in plasma, RT 24 hrs: 101%
[1]; [18]
  Stability, Precipitated 4hrs in RT: 88.8%
  Stability in plasma, F/T cycle 3: 90.4%
  Stability in plasma, F/T cycle 5: 88.5%
[1]; [19]
  Stability, Precipitated 4hrs in RT: 88.2%
  Stability in plasma, F/T cycle 3: 97.5%
  Stability in plasma, F/T cycle 5: 93.7%
  Stability in plasma, 4°C 24 hrs: 106%
  Stability in plasma, -80°C 224 days: 94.5%
[1]; ambient temperature (about 23°C) for 4 h prior to transfer to Phree plate
  Stability of protein precipitated samples: good stability
[1]; five cycles, QC samples in all anticoagulants, including plasma with moderate haemolysis
  Freeze-thaw stability in plasma: good stability
[1]; up to 24 h at ambient temperature (about 23°C) and 4°C in all anticoagulants, CPD plasma up to 48 h
  Short-term stability in plasma: confirmed
[2]; extracted samples in LC autosampler 10°C up to 65 h, full set of calibrators and QC re-injected
  Variation in QC concentrations: less than 10%
[2]; extracted samples in LC autosampler 10°C, 65 h
  Loss, original injection vs 65-h injection: about 20%
[3]; 0.5-g intravenous dose
  Mean plasma concentration 24 h after administration: 5300 ng/mL
[3]; 1-g intravenous dose
  Mean plasma concentration 24 h after administration: 9300 ng/mL
[3]; 2-g intravenous dose
  Mean plasma concentration 24 h after administration: 15100 ng/mL
[3]; standard 2-g daily dose, critically ill patients with sepsis
  Population mean peak levels: below 200 μg/ml
[4]; acid hydrolysis with 0.1 M hydrochloric acid, 30 minutes, ref Shrestha et al. 24
  Degradation: 19.6%
[4]; post-extraction dilution of samples using 0.5% formic acid in water, ref Herrera-Hidalgo et al. 31
  LC-stability: 4 h
[5]; +4°C for 5 days
  Stock solution stability: above 98%
[5]; -80°C for 5 days
  Stock solution stability: above 98%
  Working solution stability: about 98%
[5]; workbench +24°C for 8 hrs
  Stock solution stability: above 98%
[5]; workbench +24°C for 5 hrs
  Working solution stability: about 98%
[6]; 10 mM ammonium formate containing 2% formic acid (pH about 2), dark, 48 hrs
  Degradation: 95%
[6]; ammonium formate 10 mM with 2% formic acid (pH about 2), 2 days (48 hrs)
  Remaining of initial concentration: 5%
[6]; ammonium formate 10 mM with 2% formic acid (pH about 2), 3 days
  Remaining of initial concentration: less than 1%
[6]; dilutions in solutions with neutral pH, 2 and 3 days
  Remaining of initial concentration: 95–100%
